The values that follow come from US8779006B2, “Compositions and methods for treatment and prevention of osteoarthritis” (Nucitec S.A. de C.V., priority 2007, dated 2014).

Experiment [1] relates to patients with OA of the knee. The experiment can be described thus: Example 2 randomized double-blind active-controlled study: WOMAC index. It is filed as in vivo, human. The method, then: (§1) This was a 16-week, randomized, double-blind, active-controlled, parallel-group study. The study received Ethics Committee approval, was performed in accordance with the ICH Harmonized Guidelines for Good clinical Practice (GPC) and the Declaration of Helsinki. All patients provided written, informed consent before the start of the study.
(§2) 117 patients with OA of the knee (according to the American College of Rheumatology criteria) were included in the study. Patients were enrolled by public advertising and were studied at the San Jose Hospital in Queretaro, México. Entry criteria included: willingness to participate in the study, male and female patients aged at least 40 years of age with symptomatic evidence of OA in the knee for at least 1 year, radiographic evidence of Kellgren and Lawrence grade II to IV OA of the knee, and no intra-articular injection of corticosteroids within the last 3 months. Patients were excluded if they had: any history of adverse reaction to the study drugs, current pregnancy status, uncontrolled hypertension, active infection, undergone surgery/arthroscopy within three months, diagnosis of radiographic OA of Kellgren and Lawrence grade I.
(§3) Participants were assessed in-person during 6 visits conducted at monthly intervals. After giving written informed consent (visit #1), patients were screened and selected according to the predetermined criteria. Visit #2 was the baseline assessment. During this visit selected patients were assigned a unique patient identification number and randomized to receive 1 intra-articular monthly injection (10 mL) of Kondrium™, Kondrium™-F or methylprednisolone (80 mg) 1 month apart during the next 3 months (visits 3, 4 and 5). Visit #3, #4 and #5 served as a midpoint assessment and visit #6 was the final assessment corresponding to the end of the intervention period of the study. Kondrium™ is an aqueous formulation that contains 6.75% (w/v) sodium bicarbonate and 0.75% (w/v) calcium gluconate. Kondrium™-F is an aqueous formulation that contains 6.75% (w/v) sodium bicarbonate and 1.5% (w/v) calcium gluconate.
(§4) The primary efficacy variable was the change from the baseline to final assessment in the Western Ontario and McMastern University OA index (WOMAC subscale score for pain), and Lequesne's functional index.
(§5) Data analysis was performed using SPSS for Windows version 10.0. Baseline demographic variables and compliance were analyzed by means of the χ^2 test. A univariate analysis of variance (ANOVA) was used to determine whether the three treatment groups differed in mean values of change from a baseline in WOMAC and Lequesne's functional index. Treatment effect is shown as the main effect controlled by the baseline values. Pairwise comparisons between treatments were done with the LSD test. All statistical tests were performed at the 0.05 level of significance.

The subject of experiment [2] is patients with OA of the knee. The experiment is described as follows: Example 2 randomized double-blind active-controlled study: Lequesne's functional index. It is filed as in vivo, human. How it is done:
as §1, §2, §3, §4, §5

Where [3] appears, read: after 4 months of treatment, monthly intra-articular injection.

For the compound `C[C@H]1C[C@@H]2[C@H]([C@@H](O)C[C@@]3(C)[C@H]2CC[C@]3(O)C(=O)CO)[C@@]2(C)C=CC(=O)C=C12` [Methylprednisolone, methylprednisolone], in experiment [1] (setting [3]), the “WOMAC Pain, change, mean” value is reported as −2.76; the “WOMAC Pain, final, mean” value is 2.57; the “WOMAC Physical functioning, change, mean” value is listed as −7.34; the “WOMAC Physical functioning, final, mean” value worked out at 8.19. In experiment [1] (setting [3]), the “WOMAC Stiffness, change, mean” value is −2.42 and the “WOMAC Stiffness, final, mean” value is reported as 2.77. Moreover, in experiment [1] (before treatment), the “WOMAC Pain, baseline, mean” value is 4.72; the “WOMAC Physical functioning, baseline, mean” value amounted to 14.47; the “WOMAC Stiffness, baseline, mean” value is reported as 4.79. Besides, in experiment [2] (setting [3]), the “Lequesne functional index Maximum Walking Distance, change, mean” value is −0.75; the “Lequesne functional index Maximum Walking Distance, final, mean” value was determined as 2.90; the “Lequesne functional index Normal activities, change, mean” value is −2.80; the “Lequesne functional index Normal activities, final, mean” value was found to be 4.62. In experiment [2] (setting [3]), the “Lequesne functional index Pain, change, mean” value is on record as −1.96 and the “Lequesne functional index Pain, final, mean” value was determined as 2.86. For the same compound, in experiment [2] (before treatment), the “Lequesne functional index Maximum Walking Distance, baseline, mean” value is on record as 3.24; the “Lequesne functional index Normal activities, baseline, mean” value amounted to 6.93; the “Lequesne functional index Pain, baseline, mean” value is given as 4.34. The “mean change in the Lequesne's functional index” value in experiment [2] (end of study vs baseline) is recorded as −5.2.
